{
  "source": "paper PMC5316530",
  "about": "“The Ratio of 2-AG to Its Isomer 1-AG as an Intrinsic Fine Tuning Mechanism of CB1 Receptor Activation” (Frontiers in Cellular Neuroscience, 2017)",
  "target": "T1, CB1 receptor (Mus musculus, UniProt P47746)",
  "T1 construct": "gene Cnr1; pcDNA3 CB1 (Addgene plasmid # 13391) overexpressed in COS7 cells",
  "T1 sequence (P47746 whole entry)": "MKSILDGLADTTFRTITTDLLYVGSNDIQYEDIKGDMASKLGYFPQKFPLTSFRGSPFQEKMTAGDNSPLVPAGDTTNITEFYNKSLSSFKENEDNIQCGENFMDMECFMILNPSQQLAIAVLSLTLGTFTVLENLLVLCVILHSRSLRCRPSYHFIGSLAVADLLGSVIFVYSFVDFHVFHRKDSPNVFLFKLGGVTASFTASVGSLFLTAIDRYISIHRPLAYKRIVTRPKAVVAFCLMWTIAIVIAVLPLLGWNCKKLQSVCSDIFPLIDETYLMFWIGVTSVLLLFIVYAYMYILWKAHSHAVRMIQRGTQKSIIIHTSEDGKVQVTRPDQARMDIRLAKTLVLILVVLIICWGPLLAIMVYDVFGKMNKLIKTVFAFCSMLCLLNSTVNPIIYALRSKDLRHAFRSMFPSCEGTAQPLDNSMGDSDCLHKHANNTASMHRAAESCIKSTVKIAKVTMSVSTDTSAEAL",
  "test": "Fluo-8 Ca2+ imaging in CB1-transfected COS7 cells; concentration-response, blocked by AM251",
  "type": "cell-based",
  "note": "pEC50: −log10 of the molar value.",
  "data": [
    {"compound": "CCCCC/C=C\\C/C=C\\C/C=C\\C/C=C\\CCCC(=O)OC[C@@H](O)CO", "note": "[1-AG]", "values": [
      {"measurement": "pEC50", "result": 5.72}
    ]},
    {"compound": "CCCCC/C=C\\C/C=C\\C/C=C\\C/C=C\\CCCC(=O)OC(CO)CO", "note": "[2-AG]", "values": [
      {"measurement": "pEC50", "result": 6.22}
    ]}
  ]
}
